The target in experiment [1] is T1, Prostaglandin E synthase (Homo sapiens) (UniProt O14684).
T1 sequence (whole entry): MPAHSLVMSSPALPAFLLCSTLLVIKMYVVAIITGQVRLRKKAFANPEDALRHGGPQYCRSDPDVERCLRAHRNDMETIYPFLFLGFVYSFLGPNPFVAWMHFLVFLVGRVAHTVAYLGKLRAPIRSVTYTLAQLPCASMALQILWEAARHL
Nature of the experiment: Inhibition of mPGES1 in IL-1beta-stimulated human A549 cell microsomes assessed as remaining activity at 10 uM using PGH2 as substrate by measuring reduction in PGE2 production preincubated for 15 mins followed by substrate addition and measured after 1 min by RP-HPLC analysis.

The target of the next experiment is T2, Prostaglandin E synthase (Homo sapiens, UniProt O14684).
T2 sequence (O14684 whole entry): T1 sequence (whole entry)
Nature of the experiment: Inhibition of mPGES1 in IL-1beta-stimulated human A549 cell microsomes using PGH2 as substrate assessed as reduction in PGE2 production preincubated for 15 mins followed by substrate addition and measured after 1 min by RP-HPLC analysis.

Experiment [2] has as its target T3, Prostaglandin G/H synthase 1 (Ovis aries) (UniProt P05979).
T3 sequence (whole entry): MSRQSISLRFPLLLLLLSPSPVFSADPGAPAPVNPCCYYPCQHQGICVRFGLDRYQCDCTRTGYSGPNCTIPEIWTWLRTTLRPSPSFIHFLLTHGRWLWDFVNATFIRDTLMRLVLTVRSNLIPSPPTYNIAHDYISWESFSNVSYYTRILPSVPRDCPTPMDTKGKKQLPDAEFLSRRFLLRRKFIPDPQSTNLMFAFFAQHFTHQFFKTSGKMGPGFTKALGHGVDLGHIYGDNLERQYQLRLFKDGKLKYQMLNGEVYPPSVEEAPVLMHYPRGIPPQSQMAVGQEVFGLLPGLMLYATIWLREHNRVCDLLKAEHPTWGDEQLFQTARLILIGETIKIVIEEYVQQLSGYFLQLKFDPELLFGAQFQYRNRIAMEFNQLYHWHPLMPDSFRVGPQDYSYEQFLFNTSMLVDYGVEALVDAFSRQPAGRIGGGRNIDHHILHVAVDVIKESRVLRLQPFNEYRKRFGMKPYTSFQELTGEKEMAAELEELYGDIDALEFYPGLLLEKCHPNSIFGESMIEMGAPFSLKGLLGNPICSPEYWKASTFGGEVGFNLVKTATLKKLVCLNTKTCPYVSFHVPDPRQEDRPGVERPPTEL
Nature of the experiment: Inhibition of ovine COX1 at 10 uM using arachidonic acid as substrate preincubated for 5 mins followed by substrate addition and measured after 5 mins by UPLC-MS/MS analysis.

In experiment [3] the target is T4, Prostaglandin G/H synthase 2 (Homo sapiens) (UniProt P35354).
T4 sequence (whole entry): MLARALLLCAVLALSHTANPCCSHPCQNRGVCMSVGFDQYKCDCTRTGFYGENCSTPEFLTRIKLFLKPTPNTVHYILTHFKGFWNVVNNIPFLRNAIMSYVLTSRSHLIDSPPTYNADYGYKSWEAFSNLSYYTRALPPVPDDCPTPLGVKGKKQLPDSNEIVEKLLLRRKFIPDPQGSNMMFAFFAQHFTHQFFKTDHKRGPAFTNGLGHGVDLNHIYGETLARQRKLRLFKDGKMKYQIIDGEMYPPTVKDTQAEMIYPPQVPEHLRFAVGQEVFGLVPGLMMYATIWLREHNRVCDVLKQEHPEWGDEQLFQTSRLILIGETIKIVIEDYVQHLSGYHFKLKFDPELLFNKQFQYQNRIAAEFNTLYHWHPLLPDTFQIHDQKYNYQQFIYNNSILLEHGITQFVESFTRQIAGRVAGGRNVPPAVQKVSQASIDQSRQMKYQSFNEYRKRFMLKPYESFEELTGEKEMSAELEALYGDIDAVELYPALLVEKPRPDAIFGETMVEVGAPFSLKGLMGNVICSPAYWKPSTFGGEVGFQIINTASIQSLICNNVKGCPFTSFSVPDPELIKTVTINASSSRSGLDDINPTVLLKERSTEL
Nature of the experiment: Inhibition of recombinant human COX2 at 10 uM using arachidonic acid as substrate preincubated for 5 mins followed by substrate addition and measured after 5 mins by UPLC-MS/MS analysis.

Experiment [4] has as its target T5, Prostaglandin G/H synthase 1 (Ovis aries, UniProt P05979).
T5 sequence (P05979 whole entry): T3 sequence (whole entry)
Kind of experiment: Inhibition of ovine COX1 using arachidonic acid as substrate preincubated for 5 mins followed by substrate addition and measured after 5 mins by UPLC-MS/MS analysis.

Activity calls are given as the source filed them. The rule behind the calls is not given here. A value given as a limit tells only on which side of the number the result lay.

Turning to `O=[N+]([O-])c1cc(C(F)(F)F)ccc1-c1ccc(COc2cccc(C(F)(F)F)c2)cc1`, in experiment [1], the outcome was inactive. Further, the IC50 on Prostaglandin E synthase was over 10000 nM.
Turning to `O=[N+]([O-])c1cc([N+](=O)[O-])c(-c2ccc(COc3cccc(C(F)(F)F)c3)cc2)cc1F`, the inhibition result in experiment [2] and in experiment [3] was “inactive” throughout. In addition, the Activity in experiment [1] amounted to 12.1%. The IC50 at Prostaglandin E synthase was determined as 260 nM.
Turning to `O=[N+]([O-])c1cc([N+](=O)[O-])c(-c2ccc(COc3ccccc3)cc2)cc1F`, the inhibition result in experiment [2] and in experiment [3] was “inactive” throughout. Besides, in experiment [1], the Activity was 9.5%. For the same molecule, the IC50 on Prostaglandin E synthase is 600 nM.
Regarding `O=[N+]([O-])c1cc([N+](=O)[O-])c(-c2ccc(COc3cccc4ccccc34)cc2)cc1F`, the inhibition result in experiment [2] and in experiment [3] was “inactive” in each case. In experiment [1], the Activity was found to be 9.1%. In addition, the IC50 on Prostaglandin E synthase is 180 nM.
On to `COCCc1ccc(OCc2ccc(-c3cc(F)c([N+](=O)[O-])cc3[N+](=O)[O-])cc2)cc1`, for which the inhibition entry in experiment [2] and in experiment [3] was “inactive” in each case. In addition, the Activity in experiment [1] was 11.8%. The IC50 on Prostaglandin E synthase is 1640 nM.
For the molecule `O=[N+]([O-])c1cc(C(F)(F)F)ccc1-c1ccc(COc2cccc3ccccc23)cc1`, the outcome in experiment [1] was inactive. Also, on Prostaglandin E synthase, the IC50 was over 10000 nM.
In the same order, the values of `O=[N+]([O-])c1cc(C(F)(F)F)ccc1-c1ccccc1COc1cccc(C(F)(F)F)c1` are “inactive” and over 10000 nM.
As for `COCCc1ccc(OCc2ccc(-c3ccc(C(F)(F)F)cc3[N+](=O)[O-])cc2)cc1`, the outcome in experiment [1] was inactive. Also, the IC50 on Prostaglandin E synthase was over 10000 nM.
On to `O=[N+]([O-])c1cc(C(F)(F)F)ccc1-c1ccc(COc2ccccc2)cc1`, for which, in experiment [1], the result was inactive. At Prostaglandin E synthase, the IC50 is over 10000 nM.
For the molecule `O=[N+]([O-])c1cc([N+](=O)[O-])c(-c2ccccc2COc2cccc(C(F)(F)F)c2)cc1F`, the inhibition result in experiment [2] was “Active”. Also, the inhibition entry in experiment [3] was “inactive”. Further, in experiment [1], the Activity came out at 7%. Further, the IC50 on Prostaglandin E synthase came to 540 nM; in experiment [4] it was 3000 nM.

Values taken from ChEMBL document CHEMBL4251562, “Discovery of new potent molecular entities able to inhibit mPGES-1” (Eur J Med Chem, 2018).
